The test system of experiment [1] is P-388 lymphocytic leukemia cells. As to conditions: Choi et al, Planta Medica 1988; cited from earlier work.
Experiment [2] has as its system E-selectin. Description: cancer cell adhesion to E-selectin (E-selectin chimera binding to fixed LS174T colon carcinoma cells). The experiment is classed as cell-based. As to conditions: lowest concentration from serial two-fold dilutions inhibiting by 50% or more, FIGS. 3 and 4.
Experimental: The mixture is rotated briskly on a rotary platform at room temperature for about 30-60 minutes. Particulate matter is removed by centrifugation, and the soluble fraction is transferred onto 96-well microtiter plates containing glutaraldehyde fixed LS174T colon carcinoma cells. This cell line is known to adhere to E-selectin. After 60 minutes at 37° C., plates are washed and E-selectin chimera bound to cells is quantified by addition of pNPP substrate in 1M diethanolamine buffer containing 0.1 mg/ml MgCl2 at pH 9.8. Plates are developed in the dark and read at 405 nm. The IC50 values are calculated and are the lowest concentrations from serial two-fold dilutions (quadruplicate wells at each concentration) which inhibits cell binding by 50% or more relative to the control.
Experiments were conducted to determine the capacity of the invention compounds to interfere with the binding of cancer cells to E-selectin. The compounds are dissolved in dimethylformamide (DMF) prior to being assayed. […] After 60 minutes at 37° C., plates are washed and E-selectin chimera bound to cells is quantified by addition of pNPP substrate in 1M diethanolamine buffer containing 0.1 mg/ml MgCl2 at pH 9.8. Plates are developed in the dark and read at 405 nm. […]
For experiment [3], the system named is ornithine decarboxylase. As to conditions: Yasukawa et al. 1991; cited from earlier work.
In experiment [4] the test system is arachidonic acid (AA) induced ear swelling. The experiment in a line: arachidonic acid (AA), murine skin inflammation model (ear swelling). The experiment is classed as in vivo. To be noted: topical, 1 mg, 90 minutes. Here is the method:
Arachidonic acid is known to induce an inflammatory response and the compounds were tested for their capacity to inhibit the response.
Briefly, the compounds at an appropriate concentration are dissolved in a suitable solvent, and applied to a rodent ear immediately following application of arachidonic acid (AA). A control of AA alone is run. About 90 minutes later a 6 mm disk of each ear is removed and weighed.
For comparison, betulinic acid was also tested. All compounds were dissolved at 50 mg/mL in CHCl3 :CH3 OH (1:1) and […] of each compound was applied two times to the ear, at about a 2 minute interval or the period of time it took for the solvent to evaporate from the ear, immediately following arachidonic acid (AA). A control of AA alone was run. Ninety minutes later a 6 mm disk of each ear was removed and weighed.

In experiment [5] the test system is 5-lipoxygenase. As to conditions: Sotomatsu et al. 1959; Inoue et al. 1986; cited from earlier work.
Experiment [6] has as its system P-selectin. The experiment in a line: inhibition of P-selectin binding to HL-60 cells. In kind it is cell-based, human HL-60 cells. As to conditions: read-out: IC50, P-selectin binding to HL-60 cells; P-selectin 200 ng/ml; 4° C., 1 hour. Here is the method: Certain of the invention compounds were tested for their capacity to inhibit P-selectin binding to HL-60 cells, and to a chemical known to bind to P-selectin, 2,3 sLex. The following materials and procedures were used.
P-Selectin Detection Solutions. Goat F(ab')2 anti-human IgG (Fc spec.)-biotin and streptavidin-AP were diluted 1:1000 in 1% BSA-TBS with 1 mM Ca^++. An Elisa assay was utilized to measure P-selectin binding to 2,3 sLex, and P-selectin was added at 300 ng/ml. An Elisa assay was also used to assay for the capacity of the invention compounds to inhibit HL-60 cell binding to P-selectin. HL-60 cells were used, and P-selectin was added at 200 ng/ml.
2,3 sLex was coated at 30 pmoles/well to Probind microtiter plates for Elisa. The glycolipid was added at 50 μl/well in 50% MeOH and allowed to evaporate overnight. Elisa plates and HL-60 assay plates were blocked with 5% BSA-TBS Ca^++ for more than an hour at room temperature. The plates were washed with TBS without Ca^++.
HL-60 cells were harvested by centrifugation, washed with TBS no Ca^++, counted, and the density adjusted to 2×10^6 /ml in 1% BSA-TBS Ca^++.
Briefly, the assays were conducted as follows. […] DMF solutions were added directly to 1% BSA/TBS-Ca for dilutions through 0.5 mM. Lower concentrations were made in serial two-fold dilutions in BSA-TBS. […]

Here are results for three compounds from US5643884A, “Lupane triterpenoid derivatives” (Glycomed Incorporated, priority 1993, dated 1997).

The IC50 is the concentration at which inhibition is half-maximal.

≈ marks a conversion by molar mass, not a printed value.

Take `C=C(C)[C@@H]1CC[C@]2(C(=O)O)CC[C@]3(C)[C@H](CC[C@@H]4[C@@]5(C)CC[C@H](OC(C)=O)C(C)(C)[C@@H]5CC[C@]43C)[C@@H]12` [betulinic acid 3-monoacetate]: the “ED50 against P-388 lymphocytic leukemia cells” value in experiment [1] is 10.5 µg/mL (≈ 21.1 µM).
Take `C=C(C)[C@@H]1CC[C@]2(C(=O)OC)CC[C@]3(C)[C@H](CC[C@@H]4[C@@]5(C)CC[C@H](O)C(C)(C)[C@@H]5CC[C@]43C)[C@@H]12` [betulinic acid methyl ester]: the “ED50 against P-388 lymphocytic leukemia cells” value in experiment [1] was 6.8 µg/mL (≈ 14.4 µM).
For the compound `C=C(C)[C@@H]1CC[C@]2(C(=O)O)CC[C@]3(C)[C@H](CC[C@@H]4[C@@]5(C)CC[C@H](O)C(C)(C)[C@@H]5CC[C@]43C)[C@@H]12` [betulinic acid], the IC50 in experiment [2] was 60 µM; in experiment [6], around 750 µM. Further, in experiment [3], the “inhibition of ornithine decarboxylase” value is “known inhibitor of ornithine decarboxylase”. Moreover, the “% Inhibition of Swelling” value is around 0% in experiment [4] (first printed value of three separate experiments); 0.0% in experiment [4] (first printed value of three separate experiments, listed as Betulinic acid); around 12.2% in experiment [4] (second printed value of three separate experiments); around 25.9% in experiment [4] (third printed value of three separate experiments). In experiment [5], the “inhibition of enzymes involved in leukotriene biosynthesis, including 5-lipoxygenase” value is on record as “capacity to inhibit enzymes involved in leukotriene biosynthesis, including 5-lipoxygenase”.
